PMC7915858, “Complementary Effects of Carbamylated and Citrullinated LL37 in Autoimmunity and Inflammation in Systemic Lupus Erythematosus” (International Journal of Molecular Sciences, 2021)

Experiments:
SLE CD4 T-cells = settings: cited from earlier work
Excerpt: The activation of autoreactive T- and B-cells characterizes Systemic Lupus Erythematosus (SLE), a rare but potentially severe disease, with poor therapeutic options. In this context, a deeper knowledge of the molecular pathways leading to autoimmunity in SLE may shed light over disease aspects still neglected and uncover novel disease biomarkers and therapy targets. The human cathelicidin antimicrobial peptide, (AMP, Uniprot P49913)—also called CAP-18 or FALL-39—is encoded by the human gene CAMP. The mature form, peptide LL37, which corresponds to the COOH-terminal part of the molecule ( ...

pDCs = settings: LL37 citrullinated at all five arginines; cited from earlier work
Excerpt: LL37 is able to activate innate immune cells and B-cells after forming complexes with nucleic acids in a special molecular conformation, suitable for TLR stimulation. PDCs, as well as B-cells, are both activated by LL37-DNA or LL37-RNA complexes.

HLA-DR1 (DRB1*0101) = HLA-DR1 (DRB1*0101) (Homo sapiens, UniProt P01903+P01911, /P40L/Q125E/R42F/V115G/Y59C); assay: Peptide-MHC class II binding (HLA-DR folding assay, LOCI/AlphaScreen); settings: peptide titrated, 48 h at 18 °C, LOCI, two experiments, KD values only in picture (Table S2)
Description: (§1) Peptide-MHC-binding assays was performed by ImmunAware (Horsholm, Denmark). Binding was measured using a Luminescent Oxygen Channeling Immunoassay (LOCI), marketed by Perkin Elmer (Hopkinton, MA, USA) as AlphaScreen. This is a nonradioactive bead-based homogenous proximity assay, where the donor beads containing a photosensitizer compound, upon excitation with light at a 680 nm wavelength, converts ambient oxygen to energy-rich, short-lived singlet oxygen; this latter is transferred to acceptor beads, in close proximity only. The acceptor beads can respond to a single oxygen with a luminescence/fluorescence cascade, leading to an amplified signal in the 520–620 nm range. There is a tag binding to the donor beads: a biotin group engineered into the HLA β chain.
(§2) The acceptor beads are linked instead to a conformation-dependent HLA class II specific antibody (L243). Thus, only when a peptide binds well the HLA class II molecule, a corrected folded HLA class II molecule is formed and can be recognized by the L243 antibody. Biotinylated recombinant HLA class II molecules were diluted from an 8 M urea buffer into a folding buffer (PBS, 20% glycerol, Protease inhibitor mix). Different peptide concentrations, between 0.13 nM and 10,000 nM, were added into the assay. The tested peptides were titrated in 5-to-8 five-fold concentration, […]. The reaction mixtures were incubated for 48 h at 18 °C to allow peptide-HLA-complex formation to reach a steady state. After incubation, 15 μL of the folding mixture was transferred to a 384-well Optiplate (Perkin Elmer), followed by addition of 15 μL of a solution containing L243 acceptor beads and streptavidin donor beads (final concentration of beads was 5 μL/mL). The plates were incubated over night at 18 °C and then measured in enVisionTM, Perkin Elmer. Assay signals measured in OD450 were plotted against the offered peptide concentrations and analyzed by non-linear regression using GraphPad Prism. The peptide concentration resulting in half saturation, the half maximal effective concentration (EC50), was estimated by fitting the experimental data to the equation: Y = Bmax*X/(KD + X), where Y is the OD450 measurement of complexes formed and X is the concentration of ligand (peptide) offered. The EC50 approximates the KD as long as the receptor concentration used is less than the KD, thus avoiding ligand depletion.

HLA-DR15 (DRB1*1501) = HLA-DR15 (DRB1*1501) (Homo sapiens, UniProt P01903+P01911); assay: as above; settings: peptide titrated, 48 h at 18 °C, LOCI, two experiments, KD values only in picture (Table S2)
Description: as §1, §2

[1] = system: native LL37-P1-specific T-cells (HLA-DRB1*1501 tetramer); assay: Peptide-MHC-tetramer staining of T-cells after PBMC stimulation; assay type: cell-based, human
Description: Peptide-MHC-tetramers were from ImmunAware (Denmark). Staining was performed for 40 min with 1microL of tetramer suspension at 37 °C, followed by staining for CD4 (4 °C, 20 min), without washing. After incubation with anti-CD4 antibody, cells were washed, resuspended in PBS and kept at 4 °C. Before flow cytometry-acquisition, cells were labeled with PercP-conjugated 7-AAD to exclude dead cells. The peptide-MHC-tetramers used in this study are: the HLA-DR15-P1: tetramer of HLA-DRB1*1501 LLGDFFRKSKEKIGK (corresponding to the first aa at the NH2-term of the mature native LL37), (PE-conjugated) and the control peptide-MHC-tetramer called DR15-ctr: tetramer of HLA-DRB1*1501 […]1-169-185 (PE-conjugated). The other couple of peptide-MHC-tetramers used were HLA-DRB5*0101 loaded with the same LL37 epitope as above and the control tetramer HLA-DRB5*0101 loaded with the control epitope PVSKMRMATPLLMQA (CLIP-derived).

[2] = 7 days carb-LL37 stimulation, control tetramer, tetramer/CXCR5 plots
[3] = 7 days carb-LL37 stimulation, tetramer loaded with native LL37 epitope P1, tetramer/CXCR5 plots

Row | Substance | Antigen efficiency in SLE compared to native LL37 (SLE CD4 T-cells) | Ability to transform cell-free DNA into an inducer of IFN-I by human pDCs (pDCs) | Binding to HLA-DRB1*0101 compared to cit-LL37 (HLA-DR1 (DRB1*0101)) | Binding to HLA-DRB1*0101 compared to cit-LL37 (HLA-DR1 (DRB1*0101); listed as Carb-LL37) | Binding to HLA-DRB1*1501 compared to cit-LL37 (HLA-DR15 (DRB1*1501)) | Binding to HLA-DRB1*1501 compared to cit-LL37 (HLA-DR15 (DRB1*1501); listed as Carb-LL37) | Percent printed first in Figure S7b plot (gate not recoverable from text) [1, 2] | Percent printed second in Figure S7b plot (gate not recoverable from text) [1, 2] | Percent printed third in Figure S7b plot (gate not recoverable from text) [1, 2] | Percent printed second in Figure S7a plot (gate not recoverable from text) [1, 3] | Percent printed third in Figure S7a plot (gate not recoverable from text) [1, 3] | CXCR5 expression on LL37-specific (tetramer-positive) T-cells ([1]; SLE PBMC stimulated, Figure 5d) | Expansion of T-cells specific for the native LL37 epitope ([1]; SLE PBMC, tetramer staining, versus control tetramer)
1 | LLGDFFR(cit)KSKEKIGKEFKR(cit)IVQR(cit)IKDFLR(cit)NLVPR(cit)TES [cit-LL37, LL37 citrullinated at all five arginine sites] | more efficient antigen in SLE than native LL37 | loose ability to transforms the “cell-free” DNA into an inducer of IFN-I by human pDCs | – | – | – | – | – | – | – | – | – | – | –
2 | L*LGDFFRK*SK*EK*IGKEFK*RIVQRIK*DFLRNLVPRTES [carb-LL37] | – | – | equivalent to the binding efficiency of cit-LL37 | binds HLA-DR alleles similarly to cit-LL37 | equivalent to the binding efficiency of cit-LL37 | binds HLA-DR alleles similarly to cit-LL37 | 0.0% | 0.19% | 0.01% | 2.00% | 2.20% | variable but significant expression of the TFH marker CXCR5 | expansion of T-cells specific for the native LL37 epitope
